# Results taken from PMC12458545, “Repurposing a Detrimental Antibody Epitope as Targeted Therapeutics for Sepsis and Rheumatoid Arthritis” (Research Square, 2025).
# Entries after “also recorded” stand apart in the source; their conditions may differ.
# Columns and labels:
# [1] = system: human PBMCs; experiment: HMGB1-induced pCTS-L secretion, Western blot; type: cell-based; conditions: P2–1 5 or 10 μg/ml, HMGB1 0.5 or 2.0 μg/ml, 16 h, n = 4 independent experiments
# Procedure: (§1) Human blood was purchased from the New York Blood Center (Long Island City, NY, USA), and PBMCs were isolated by density gradient centrifugation through Ficoll (Ficoll-Paque PLUS) as previously described,[30]. PBMCs were cultured in RPMI-1640 supplemented with 10% human serum, 2 mM L-glutamine, 100 U/mL penicillin, and 100 μg/mL streptomycin (all from Invitrogen). For experiments, PBMCs were stimulated with recombinant human HMGB1 (0.5 or 2.0 μg/ml) for 16 hours, either alone or in combination with P2–1 at 5.0 or 10.0 μg/ml. Cell-free supernatants were collected for analysis of cytokines/chemokines levels by Cytokine Antibody Arrays, or pCTS-L levels by Western blotting analysis as described.
# Cell-conditioned medium from human PBMC cultures was collected, and concentrated using Amicon Ultra Centrifugal Filters. Equal volumes of conditioned medium, representing equivalent numbers of cells, were resolved on sodium dodecyl sulfate (SDS)-polyacrylamide gels and transferred to polyvinylidene difluoride (PVDF) membranes. After blocking with 5% nonfat milk in Tris-buffered saline with 0.1% Tween 20 (TBST), membranes were probed with a home-made primary monoclonal antibody against pCTS-L (e.g., mAb2, 1:1000) overnight as previously described. After washing, membranes were incubated with a horseradish peroxidase-conjugated secondary antibody. Protein bands were visualized using enhanced chemiluminescence (ECL) substrate (Pierce) and detected with a chemiluminescence imaging system (e.g., Bio-Rad ChemiDoc MP). The relative levels of specific proteins were determined using the UN-SCAN-IT Gel Analysis Software Version 7.1 (Silk Scientific Inc., Orem, UT, USA) and expressed in arbitrary units (AU).
# [2] = system: CAIA-induced mechanical allodynia; experiment: CAIA pain sensitivity, Von Frey filaments; type: in vivo, Balb/C mice; conditions: P2–1 i.p. daily Day 6 to Day 9; 50% paw withdrawal threshold, up-down method
# Procedure: (§2) The CAIA model was performed in Balb/C mice (8–10 weeks old) as described previously. On Day 0, mice received i.p. injection of 2 mg anti-collagen II mAb cocktail (α-II, Chondrex, Inc., Redmond, WA). On Day 3, mice received i.p. injection of 30 μg LPS (Escherichia coli O111:B4; Sigma-Aldrich) to activate inflammation and synchronize arthritis onset. Mice were randomized, and therapeutic agents (P2–1 peptide or pCTS-L-neutralizing mAb2) were administered i.p. daily from Day 6 to Day 9. Arthritis severity was scored daily using a clinical scoring system [0 – 4 per paw: 0 = normal; 1 = mild redness and swelling in a single joint type (ankle, wrist, or individual digits); 2 = moderate redness and swelling affecting two joint types; 3 = severe redness and swelling involving across all three joint types; 4 = maximal redness and swelling of the entire paw that obscured joint definition].
# Mechanical allodynia was assessed using Von Frey filaments (Stoelting Co., Wood Dale, IL) applied to the plantar surface of the hind paws as previously described,[82]. Mice were habituated in individual transparent enclosures on an elevated wire mesh platform. […] The “up-down” method determined the 50% paw withdrawal threshold, defined as the force required to elicit a withdrawal response in 50% of applications.
# [3] = water solubility; type: physicochemical
# [4] = system: collagen antibody-induced arthritis (CAIA); experiment: CAIA arthritis severity clinical score; type: in vivo, Balb/C mice; conditions: P2–1 i.p. daily Day 6 to Day 9; male and female mice; vs. saline vehicle
# Procedure: as §2
# [5] = system: CAIA-induced joint tissue cytokines and chemokines; experiment: CAIA joint tissue inflammation, Cytokine Antibody Arrays; type: in vivo, Balb/C mice; conditions: P2–1, harvested Day 10; for joint tissue inflammation (array overall): representative arrays, four vehicle- and four P2-1-treated mice
# Procedure: as §2
# (§3) Levels of cytokines and chemokines in mouse serum and joint tissue lysates, or human PBMC culture supernatants were determined using murine or human Cytokine Antibody Arrays (e.g., Cat. No. M0308003 or Cat. No. AAH-CYT-3–4, RayBiotech Inc., Norcross, GA, USA) as previously described,[30],[86],[87]. Serum samples were collected from mice at 24 h post-CLP. The soft tissue of the hindpaw and ankle joints was carefully collected using a previously described protocol. Briefly, 0.5 g of fresh soft tissue was cut into 3 mm pieces, and mixed with 400 μL of a hypertonic solution (500 mL PBS with 4.5 g NaCl and 2× protease inhibitor cocktail) in a 10 mL syringe. Mechanical extrusion, involving 30 rapid back-and-forth movements of the plunger, was then performed. The expelled extracellular fluid was collected, immediately aliquoted, and stored at −20°C until analysis. Cell-conditioned medium was collected from PBMC cultures after 16 h of stimulation. Arrays were performed according to the manufacturer’s protocol, followed by chemiluminescent detection and densitometric quantification as previously described,[30].
# [6] = system: human PBMCs; experiment: HMGB1-induced cytokine/chemokine secretion, Cytokine Antibody Arrays; type: cell-based; conditions: P2–1 5 or 10 μg/ml, HMGB1 0.5 or 2.0 μg/ml, 16 h
# Procedure: as §1, §3
substance,measurement,setting,value
"54-TKVH(Nle)KSFLAFQTKT-69 [P2–1, water-soluble derivative of TN peptide P2 with Met to Norleucine and Cys to Ser substitutions]",HMGB1-induced pCTS-L secretion,[1],dose-dependently abrogated HMGB1-induced pCTS-L secretion; also recorded: striking and dose-dependent suppression
same,HMGB1-induced pCTS-L secretion,[1]; listed as P2-1,inhibitory effect
same,pain sensitivity (paw mechanical withdrawal threshold),[2],significantly reduced CAIA-induced pain sensitivity by partially restoring paw mechanical withdrawal thresholds
same,water solubility,[3],good water solubility
same,arthritis severity,[4],dose-dependently and significantly attenuated
same,joint tissue MIP-1γ/CCL9/10,[5],reduced levels; also recorded: significant reduction
same,joint tissue VCAM-1,[5],reduced levels; also recorded: significant reduction
same,joint tissue sTNFRI,[5],reduced levels; also recorded: significant reduction
same,joint tissue sTNFRII,[5],reduced levels; also recorded: significant reduction
same,joint tissue inflammation (array overall),[5],significantly reduced CAIA-induced joint tissue inflammation
same,joint tissue inflammation (array overall),[5]; listed as P2-1,reduction in various inflammatory cytokines and chemokines
same,HMGB1-induced cytokine/chemokine secretion (words),[6],did not affect the secretion of these HMGB1-induced cytokines and chemokines; also recorded: did not broadly inhibit the secretion of these HMGB1-induced cytokines and chemokines
same,HMGB1-induced cytokine/chemokine secretion (words),[6]; listed as P2-1,does not broadly inhibit
